According to ChEMBL document CHEMBL1201862, “PubChem BioAssay data set” (2004):
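Values below derive from 48-hour exposures of cells grown in 96-well plates, with endpoints linearly interpolated between the two concentrations bracketing the appropriate inhibition level. GI50 = concentration required for 50% inhibition of growth.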 Activity calls are given as the source filed them. No stated cut-off is given here; in the data, active = GI50 up to about 1.1 µM and inactive = higher.

Legend:
Test in all cases: NCI-60 cell line screen, 48 h
[1] = test system: SF-295
[2] = test system: HL-60
[3] = test system: RXF 393
[4] = test system: SK-MEL-2
[5] = test system: UO-31
[6] = test system: 786-0
[7] = test system: OVCAR-5
[8] = test system: SK-OV-3
[9] = test system: HOP-92
[10] = test system: NCI/ADR-RES
[11] = test system: HCT-116
[12] = test system: COLO 205
[13] = test system: TK-10
[14] = test system: HOP-62
[15] = test system: MCF7
[16] = test system: MDA-MB-231
[17] = test system: OVCAR-8
[18] = test system: T47D
[19] = test system: KM12
[20] = test system: OVCAR-3

SMILES | GI50 [1] | GI50 [2] | GI50 [3] | GI50 [4] | GI50 [5] | GI50 [6] | GI50 [7] | GI50 [8] | GI50 [9] | GI50 [10] | GI50 [11] | GI50 [12] | GI50 [13] | GI50 [14] | GI50 [15] | GI50 [16] | GI50 [17] | GI50 [18] | GI50 [19] | GI50 [20]
Clc1ccc(-c2noc(CN3CCCCC3)n2)cc1 | 66.8 µM (inactive) | 85.9 µM (inactive) | 44 µM (inactive) | > 100 µM (inactive) | > 100 µM (inactive) | > 100 µM (inactive) | > 100 µM (inactive) | > 100 µM (inactive) | > 100 µM (inactive) | 46.5 µM (inactive) | 90.2 µM (inactive) | 90.2 µM (inactive) | > 100 µM (inactive) | > 100 µM (inactive) | > 100 µM (inactive) | > 100 µM (inactive) | > 100 µM (inactive) | 47.8 µM (inactive) | > 100 µM (inactive) | 67.9 µM (inactive)
Cc1ccccc1NC(=O)CC(=O)NNC(Sc1ccccc1)c1cc(/N=N/c2ccc(Br)cc2)ccc1O (stereo not given) | 2.75 µM (inactive) | 0.277 µM (active) | 2.13 µM (inactive) | 5.93 µM (inactive) | 2.68 µM (inactive) | 0.551 µM (active) | 7.59 µM (inactive) | 5.26 µM (inactive) | 5.97 µM (inactive) | 1.71 µM (inactive) | 0.308 µM (active) | 3.1 µM (inactive) | 1.39 µM (inactive) | 2.17 µM (inactive) | 0.798 µM (active) | 1.14 µM (inactive) | 0.552 µM (active) | 3.93 µM (inactive) | 4.79 µM (inactive) | 0.368 µM (active)
CCOC(=O)C(NC(=O)CC)(Nc1ccc(S(=O)(=O)Nc2ccc(OC)nn2)cc1)C(F)(F)F (stereo not given) | > 100 µM (inactive) | > 100 µM (inactive) | > 100 µM (inactive) | > 100 µM (inactive) | > 100 µM (inactive) | > 100 µM (inactive) | > 100 µM (inactive) | > 100 µM (inactive) | > 100 µM (inactive) | > 100 µM (inactive) | > 100 µM (inactive) | > 100 µM (inactive) | > 100 µM (inactive) | > 100 µM (inactive) | > 100 µM (inactive) | > 100 µM (inactive) | > 100 µM (inactive) | > 100 µM (inactive) | > 100 µM (inactive) | > 100 µM (inactive)
CC1CCCCN1CC(=O)c1ccc2c(c1)Sc1ccccc1O2 (stereo not given) | 16.5 µM (inactive) | 10.2 µM (inactive) | 13.8 µM (inactive) | 17.9 µM (inactive) | 12.3 µM (inactive) | 14.1 µM (inactive) | 18.1 µM (inactive) | 16.4 µM (inactive) | 13.2 µM (inactive) | 16.7 µM (inactive) | 14.2 µM (inactive) | 24 µM (inactive) | 18.7 µM (inactive) | 15.5 µM (inactive) | 16 µM (inactive) | 24.7 µM (inactive) | 15 µM (inactive) | 20.7 µM (inactive) | 16.5 µM (inactive) | 14.4 µM (inactive)
CCCCCCOc1ccc(NC2=C(Cl)C(=O)c3c(O)ccc(O)c3C2=O)cc1 | 5.81 µM (inactive) | 1.77 µM (inactive) | 2.32 µM (inactive) | 2.96 µM (inactive) | 2.2 µM (inactive) | 0.611 µM (active) | > 10 µM (inactive) | > 10 µM (inactive) | 2.72 µM (inactive) | 2.55 µM (inactive) | 1.6 µM (inactive) | 1.78 µM (inactive) | 6.32 µM (inactive) | 1.77 µM (inactive) | 0.414 µM (active) | 1.86 µM (inactive) | 2.09 µM (inactive) | 2.03 µM (inactive) | 1.88 µM (inactive) | 2.02 µM (inactive)
Cc1c(O)c(C)c2c(C)cn(C(=O)C(C)(C)C)c2c1C | 17.8 µM (inactive) | 18.7 µM (inactive) | 12.4 µM (inactive) | 28.2 µM (inactive) | 27.9 µM (inactive) | 15.2 µM (inactive) | 30.2 µM (inactive) | 22.2 µM (inactive) | 0.0206 µM (active) | 34.1 µM (inactive) | 21 µM (inactive) | 16.6 µM (inactive) | 20.5 µM (inactive) | 17.5 µM (inactive) | 3.27 µM (inactive) | 15.2 µM (inactive) | 20.1 µM (inactive) | 23.5 µM (inactive) | 14 µM (inactive) | 43.4 µM (inactive)
NC12CC3C4CC5(N)CC3C(C1)C(C5)C4C2 | > 100 µM (inactive) | > 100 µM (inactive) | > 100 µM (inactive) | > 100 µM (inactive) | > 100 µM (inactive) | > 100 µM (inactive) | > 100 µM (inactive) | > 100 µM (inactive) | > 100 µM (inactive) | > 100 µM (inactive) | > 100 µM (inactive) | > 100 µM (inactive) | > 100 µM (inactive) | > 100 µM (inactive) | > 100 µM (inactive) | > 100 µM (inactive) | > 100 µM (inactive) | > 100 µM (inactive) | > 100 µM (inactive) | > 100 µM (inactive)
C=CCNC1=C2C[C@@H](C)C[C@@H](OC)[C@H](OC(=O)CCN(C)C)[C@H](C)/C=C(\C)[C@@H](OC(N)=O)[C@H](OC)/C=C\C=C(/C)C(=O)NC(=CC1=O)C2=O | 0.134 µM (active) | 0.362 µM (active) | 0.182 µM (active) | 0.059 µM (active) | 0.822 µM (active) | 1.43 µM (inactive) | 2.18 µM (inactive) | 0.0327 µM (active) | 8.41 µM (inactive) | 8.51 µM (inactive) | 0.134 µM (active) | < 0.0188 µM (active) | 0.0755 µM (active) | 0.044 µM (active) | 0.0295 µM (active) | 2.05 µM (inactive) | 0.324 µM (active) | 1.13 µM (inactive) | 0.0342 µM (active) | 0.205 µM (active)
CC(=O)OC(Cc1ccc2ccccc2n1)(C(F)(F)F)C(F)(F)F | 4.5 µM (inactive) | 0.0205 µM (active) | 0.675 µM (active) | 1.36 µM (inactive) | 2.22 µM (inactive) | 1.52 µM (inactive) | 2.89 µM (inactive) | 14.3 µM (inactive) | 0.142 µM (active) | 1.72 µM (inactive) | 1.31 µM (inactive) | 0.217 µM (active) | 0.33 µM (active) | 10.4 µM (inactive) | 0.063 µM (active) | 1.28 µM (inactive) | 1.69 µM (inactive) | 0.181 µM (active) | 4.7 µM (inactive) | 0.676 µM (active)
Cc1c(C)c(CC(=O)N2CC2)c(C)c(C)c1CC(=O)N1CC1 | 3.4 µM (inactive) | 0.705 µM (active) | 3.61 µM (inactive) | 16 µM (inactive) | 13.5 µM (inactive) | 3.56 µM (inactive) | 25.7 µM (inactive) | 16.8 µM (inactive) | 9.48 µM (inactive) | 11 µM (inactive) | 9.02 µM (inactive) | 14.7 µM (inactive) | 25.9 µM (inactive) | 5.21 µM (inactive) | 3.22 µM (inactive) | 19.2 µM (inactive) | 10.2 µM (inactive) | 6.61 µM (inactive) | 17.1 µM (inactive) | 19.5 µM (inactive)
COc1cc(S(=O)(=O)Nc2nc(-c3ccc(N)cc3)cs2)ccc1Cl | 43.4 µM (inactive) | 45.7 µM (inactive) | 38.1 µM (inactive) | 69.5 µM (inactive) | 85.7 µM (inactive) | > 100 µM (inactive) | > 100 µM (inactive) | 97.9 µM (inactive) | 64.9 µM (inactive) | 89.5 µM (inactive) | 65.2 µM (inactive) | 32.1 µM (inactive) | 48 µM (inactive) | > 100 µM (inactive) | 36.8 µM (inactive) | > 100 µM (inactive) | 64.7 µM (inactive) | 38.5 µM (inactive) | 72.1 µM (inactive) | 54.3 µM (inactive)
COc1c(OC(C)=O)c(OC(C)=O)cc2c1-c1ccc(SC)c(=O)cc1C(NC(C)=O)CC2 (stereo not given) | 1.45 µM (inactive) | 0.208 µM (active) | 3.66 µM (inactive) | 0.31 µM (active) | 71.9 µM (inactive) | 1.69 µM (inactive) | 10.1 µM (inactive) | 2.91 µM (inactive) | 0.425 µM (active) | > 76.6 µM (inactive) | 0.685 µM (active) | 1.65 µM (inactive) | 15.3 µM (inactive) | 0.681 µM (active) | 0.124 µM (active) | 0.512 µM (active) | 1.49 µM (inactive) | > 100 µM (inactive) | 0.504 µM (active) | 0.142 µM (active)
COc1ccc(NC(=O)CC(=O)n2nc(C)c(/N=N/c3ccc(C)c(C)c3)c2C)cc1 | 54.7 µM (inactive) | 48.3 µM (inactive) | 32.4 µM (inactive) | > 100 µM (inactive) | 24.5 µM (inactive) | 41.6 µM (inactive) | > 100 µM (inactive) | 10.8 µM (inactive) | 16 µM (inactive) | > 100 µM (inactive) | > 100 µM (inactive) | > 100 µM (inactive) | 55.1 µM (inactive) | 22.9 µM (inactive) | > 100 µM (inactive) | > 100 µM (inactive) | 29.7 µM (inactive) | 64.7 µM (inactive) | > 100 µM (inactive) | > 100 µM (inactive)
COc1cc(/C=C(\C#N)C(N)=C(C#N)C#N)cc(O)c1O | > 77.1 µM (inactive) | 26.9 µM (inactive) | > 100 µM (inactive) | > 100 µM (inactive) | > 77.8 µM (inactive) | > 100 µM (inactive) | > 100 µM (inactive) | > 100 µM (inactive) | > 68.4 µM (inactive) | > 100 µM (inactive) | > 70.5 µM (inactive) | > 100 µM (inactive) | > 100 µM (inactive) | > 71.6 µM (inactive) | 95.3 µM (inactive) | > 100 µM (inactive) | 91.2 µM (inactive) | 91.8 µM (inactive) | > 84.3 µM (inactive) | > 56.4 µM (inactive)
